In ChEMBL document CHEMBL5046248, “New Pqs Quorum Sensing System Inhibitor as an Antibacterial Synergist against Multidrug-Resistant Pseudomonas aeruginosa” (J Med Chem, 2022):

Test system: Pseudomonas aeruginosa
Test: Antibacterial activity against Pseudomonas aeruginosa PAO1 assessed as inhibition of biofilm formation for 24 hrs by crystal violet staining based assay
Type: functional, organism-based
Conditions: PAO1, 24 h

Row | Structure (SMILES) | IC50 [µM]
1 | CCCCn1c(C)cc(=O)c(O)c1CNc1ccc(OC)cc1 | 45.4
2 | CCCCCCCC(=O)NCc1cc(=O)c(O)cn1O | > 100
3 | CCCCCn1c(C)cc(=O)c(O)c1CNC(=O)c1ccc(OC)cc1 | 52.5
4 | CCCCn1c(C)cc(=O)c(O)c1CNC1CCCC1 | > 100
5 | CCCn1c(C)cc(=O)c(O)c1CNC(=O)c1ccccc1OC | 62.9
6 | CCCCn1c(C)cc(=O)c(O)c1CNS(=O)(=O)c1ccc(OC)cc1 | 40.4
7 | CCCn1c(C)cc(=O)c(O)c1CNC1CCCC1 | > 100
8 | CCCCCCC(=O)NCc1cc(=O)c(O)cn1O | > 100
9 | O=C(NCc1cc(=O)c(O)cn1O)c1ccccc1 | > 100
10 | CCCn1c(C)cc(=O)c(O)c1CNC(=O)Cc1ccc(F)cc1 | > 100
11 | CCCCCC(=O)NCc1c(O)c(=O)cc(C)n1CCCC | 34.9
12 | COc1ccc(CC(=O)NCc2cc(=O)c(O)cn2O)cc1 | > 100
13 | Cn1cc(O)c(=O)cc1CNC(=O)Cc1ccc(F)cc1 | > 100
14 | CC[C@H]1OC(=O)[C@H](C)[C@@H](O[C@H]2C[C@@](C)(OC)[C@@H](O)[C@H](C)O2)[C@H](C)[C@@H](O[C@@H]2O[C@H](C)C[C@H](N(C)C)[C@H]2O)[C@](C)(O)C[C@@H](C)CN(C)[C@H](C)[C@@H](O)[C@]1(C)O [AZITHROMYCIN] | 7.1
15 | CCCn1c(C)cc(=O)c(O)c1CNS(=O)(=O)c1ccc(OC)cc1 | 59.6
16 | Cn1cc(O)c(=O)cc1CNC(=O)c1ccc(C(F)(F)F)cc1 | > 100
17 | CCCn1c(C)cc(=O)c(O)c1CNC(=O)c1ccc(C(F)(F)F)cc1 | > 100
18 | CCCCn1c(C)cc(=O)c(O)c1CNC(=O)c1ccc(C(F)(F)F)cc1 | 8.4
19 | O=C(Cc1ccc(F)cc1)NCc1cc(=O)c(O)cn1O | > 100
20 | CCCCCCC(=O)NCc1c(O)c(=O)cc(C)n1CCC | > 100
21 | CCCn1c(C)cc(=O)c(O)c1CNC(=O)c1cccc(OC)c1 | 56.5
22 | CCCn1c(C)cc(=O)c(O)c1CNC(=O)c1ccc(OC)cc1 | 5.2
23 | CCn1c(C)cc(=O)c(O)c1CNC1CCCC1 | > 100
